Values of other authors, collected in US20050202550A1, “Crystal structure of 3', 5'-cyclic nucleotide phosphodiesterase (PDE10A) and uses thereof” (Pfizer Inc, priority 2004, published 2005).

Biological target: T1, PDE10 (Mus musculus, UniProt Q8CA95)
T1 sequence (Q8CA95 1-779 isoform Q8CA95-2): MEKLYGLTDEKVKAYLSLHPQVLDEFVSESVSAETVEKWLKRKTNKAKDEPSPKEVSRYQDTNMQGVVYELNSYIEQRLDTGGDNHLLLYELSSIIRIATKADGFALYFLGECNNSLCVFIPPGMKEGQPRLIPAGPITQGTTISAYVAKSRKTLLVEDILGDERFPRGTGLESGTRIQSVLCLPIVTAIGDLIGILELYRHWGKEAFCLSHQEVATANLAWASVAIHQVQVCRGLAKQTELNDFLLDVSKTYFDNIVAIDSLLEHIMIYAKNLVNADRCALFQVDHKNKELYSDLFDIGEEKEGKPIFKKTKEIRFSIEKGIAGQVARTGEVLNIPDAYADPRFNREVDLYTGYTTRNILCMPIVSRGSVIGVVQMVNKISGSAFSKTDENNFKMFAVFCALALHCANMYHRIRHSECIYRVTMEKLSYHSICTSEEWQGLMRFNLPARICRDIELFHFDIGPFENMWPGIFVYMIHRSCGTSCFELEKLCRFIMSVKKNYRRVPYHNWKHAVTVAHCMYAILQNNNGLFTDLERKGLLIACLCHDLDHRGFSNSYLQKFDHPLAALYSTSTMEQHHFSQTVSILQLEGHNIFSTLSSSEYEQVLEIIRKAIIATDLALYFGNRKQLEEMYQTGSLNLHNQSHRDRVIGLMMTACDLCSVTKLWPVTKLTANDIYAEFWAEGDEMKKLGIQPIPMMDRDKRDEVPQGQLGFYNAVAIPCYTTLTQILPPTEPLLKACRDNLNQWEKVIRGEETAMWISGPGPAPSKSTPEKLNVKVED
Conditions: mouse PDE10A1

Vmax for cGMP over cAMP (ratio of Vmax cGMP to cAMP): approximately 5 fold
Km (substrate, read-out: Km (affinity of the PDE10 for substrate)): 3 µM
SMILES: Nc1nc2c(ncn2[C@@H]2O[C@@H]3COP(=O)(O)O[C@H]3[C@H]2O)c(=O)[nH]1 [cGMP]
